Results taken from the supplement of paper PMC10331698.
± gives the standard deviation of the averaged measurements.

Key:
Experiment in all cases: level (log10 ratio to DMSO vehicle control); higher = higher biomarker level / cell amount than vehicle control
Details in all cases: in DMSO
[1] = compound: FC(F)(F)C(F)(F)C(F)(F)CC1CO1 [1H,1H-Heptafluorobutyl epoxide]
Protocol: (§1)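 BioMAP Diversity Plus panel of 12 human primary cell co-culture systems (3C, 4H, LPS, SAg, BT, BF4T, BE3C, CASM3C, HDF3CGF, KF3CT, MyoF, Mphg). Compounds were added 1 h before stimulation and left for 24 h (MyoF 48 h; BT 72 h for soluble read-outs or 6 d for IgG). Biomarkers were read by ELISA, cytotoxicity by SRB, PBMC viability and proliferation by Alamar Blue. Each well value was divided by the mean of 8 DMSO control wells on the same plate and log10 transformed; duplicate blinded samples were tested at 4 concentrations.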

[2] = compound: FC(F)(F)C(F)(F)C(F)(F)CI [Heptafluorobutyl iodide]
Protocol: as §1

[3] = compound: NC(=O)C(F)(F)C(F)(F)C(F)(F)C(F)(F)C(N)=O [Octafluoroadipamide]
Protocol: as §1

[4] = compound: O=C(O)C=CC(F)(C(F)(F)F)C(F)(F)F [3-(Perfluoroisopropyl)-2-propenoic acid]
Protocol: as §1

[5] = compound: O=S(=O)(Cl)C(F)(F)C(F)(F)C(F)(F)C(F)(F)C(F)(F)C(F)(F)C(F)(F)C(F)(F)F [Perfluoro-1-octanesulfonyl chloride]
Protocol: as §1

[6] = compound: O=S(=O)(F)C(F)(F)C(F)(F)C(F)(F)C(F)(F)C(F)(F)C(F)(F)C(F)(F)C(F)(F)F [Perfluorooctanesulfonyl fluoride]
Protocol: as §1

Row | Test System | level (log10) ([1]; 6700 nM) | level (log10) ([1]; 20000 nM) | level (log10) ([1]; 60000 nM) | level (log10) ([2]; 6700 nM) | level (log10) ([2]; 20000 nM) | level (log10) ([2]; 60000 nM) | level (log10) ([3]; 6700 nM) | level (log10) ([3]; 20000 nM) | level (log10) ([3]; 60000 nM) | level (log10) ([4]; 6700 nM) | level (log10) ([4]; 20000 nM) | level (log10) ([4]; 60000 nM) | level (log10) ([5]; 6700 nM) | level (log10) ([5]; 20000 nM) | level (log10) ([5]; 60000 nM) | level (log10) ([6]; 6700 nM) | level (log10) ([6]; 20000 nM) | level (log10) ([6]; 60000 nM)
1 | CASM3C:CD142/Tissue Factor | -0.0165 ± 0.016 | -0.037 ± 0.027 | -0.039 ± 0.02 | 0.0065 ± 0.0035 | -0.0175 ± 0.0035 | 0.0095 ± 0.056 | 0.0005 ± 0.028 | -0.006 ± 0.025 | -0.034 ± 0.014 | -0.037 ± 0.028 | -0.0315 ± 0.053 | -0.01 ± 0.067 | -0.0095 ± 0.04 | -0.0455 ± 0.037 | -0.0595 ± 0.032 | 0.018 ± 0.0014 | 0.0095 ± 0.0035 | 0.0025 ± 0.005
2 | HDF3CGF:CXCL8/IL-8 | -0.0075 ± 0.022 | -0.0115 ± 0.0078 | 0.0005 ± 0.0078 | -0.003 ± 0.0057 | 0.0005 ± 0.00071 | 0.0125 ± 0.0092 | 0.006 ± 0.017 | 0.0045 ± 0.0092 | 0.007 ± 0.0028 | -0.008 ± 0.0042 | 0.004 ± 0.011 | 0.0065 ± 0.013 | -0.008 ± 0.0014 | 0.0065 ± 0.0092 | 0.0265 ± 0.012 | -0.002 ± 0.0028 | -0.0015 ± 0.00071 | 0.0085 ± 0.0021
3 | HDF3CGF:SRB | -0.0095 ± 0.029 | -0.0105 ± 0.0021 | 0.0375 ± 0.0064 | -0.0315 ± 0.012 | 0.0025 ± 0.037 | 0.0275 ± 0.04 | -0.0135 ± 0.047 | -0.0225 ± 0.066 | -0.0195 ± 0.046 | -0.014 ± 0.055 | 0.0205 ± 0.011 | -0.0055 ± 0.022 | 0.015 ± 0.021 | -0.0095 ± 0.005 | -0.0345 ± 0.035 | 0.017 ± 0.0014 | 0.0365 ± 0.025 | 0.043 ± 0.034
4 | lMphg:CD106/VCAM-1 | 0.003 ± 0.011 | 0.012 ± 0.016 | 0.0095 ± 0.011 | -0.0115 ± 0.005 | -0.022 ± 0.0085 | -0.0175 ± 0.016 | 0.014 ± 0.013 | 0.019 ± 0.0085 | 0.0125 ± 0.0021 | 0.001 ± 0.024 | 0.0125 ± 0.005 | 0.002 ± 0.034 | 0.008 ± 0.0057 | 0.0135 ± 0.0078 | 0.0255 ± 0.00071 | 0.009 ± 0.017 | 0.0205 ± 0.012 | -0.0125 ± 0.0092
5 | lMphg:sIL-10 | -0.0515 ± 0.022 | -0.047 ± 0.031 | -0.01 ± 0.011 | -0.0135 ± 0.036 | 0.0085 ± 0.013 | -0.03 ± 0.078 | -0.0295 ± 0.021 | -0.012 ± 0.11 | -0.1 ± 0.017 | -0.055 ± 0.064 | -0.048 ± 0.017 | -0.082 ± 0.0071 | 0.0345 ± 0.054 | -0.071 ± 0.1 | -0.341 ± 0.033 | -0.0605 ± 0.096 | -0.0755 ± 0.11 | 0.0005 ± 0.063
6 | HDF3CGF:CD106/VCAM-1 | 0.013 ± 0.0099 | -0.017 ± 0.0014 | -0.04 ± 0.021 | 0.0715 ± 0.03 | 0.0695 ± 0.057 | 0.0585 ± 0.076 | -0.0005 ± 0.012 | -0.0165 ± 0.035 | 0.01 ± 0.0099 | -0.0265 ± 0.015 | -0.019 ± 0.02 | -0.025 ± 0.035 | -0.051 ± 0.04 | -0.0065 ± 0.0064 | -0.042 ± 0.0085 | -0.011 ± 0.02 | -0.071 ± 0.05 | -0.083 ± 0.048
7 | BE3C:Keratin 8/18 | -0.0125 ± 0.011 | 0.019 ± 0.021 | 0.011 ± 0.047 | 0.0025 ± 0.0078 | -0.0025 ± 0.00071 | 0.005 ± 0.013 | -0.0115 ± 0.005 | -0.0185 ± 0.0092 | 0.0105 ± 0.043 | 0.0015 ± 0.019 | -0.0065 ± 0.012 | 0.002 ± 0.0028 | -0.0025 ± 0.0021 | 0.003 ± 0.0028 | -0.106 ± 0.05 | -0.012 ± 0.0014 | -0.01 ± 0.016 | -0.0105 ± 0.005
8 | KF3CT:IL-1alpha | -0.009 ± 0.011 | -0.0255 ± 0.015 | 0.0095 ± 0.037 | -0.0025 ± 0.0078 | -0.04 ± 0.0042 | -0.044 ± 0.0057 | 0.014 ± 0.0028 | 0 ± 0.037 | 0.017 ± 0.017 | -0.0025 ± 0.0064 | 0.0025 ± 0.0092 | 0.001 ± 0.017 | -0.013 ± 0.0085 | -0.03 ± 0.02 | -0.055 ± 0.0014 | -0.0055 ± 0.026 | 0.007 ± 0.013 | -0.0145 ± 0.026
9 | LPS:CCL2/MCP-1 | -0.0025 ± 0.005 | -0.017 ± 0.023 | -0.0095 ± 0.0021 | 0.008 ± 0.041 | 0.0035 ± 0.013 | 0.027 ± 0.024 | 0.003 ± 0.0042 | 0.0005 ± 0.0035 | 0.018 ± 0.021 | 0.004 ± 0.0085 | -0.0155 ± 0.013 | -0.0015 ± 0.0021 | -0.0075 ± 0.0078 | 0.025 ± 0.021 | 0.0205 ± 0.029 | 0.0005 ± 0.015 | -0.012 ± 0.016 | 0.0145 ± 0.028
10 | lMphg:SRB | -0.001 ± 0.0028 | 0.0025 ± 0.0035 | -0.002 ± 0.0085 | -0.0035 ± 0.0035 | 0.0065 ± 0.0092 | 0.0045 ± 0.0064 | -0.004 ± 0.0014 | 0 ± 0.0042 | 0.008 ± 0.017 | -0.017 ± 0.0085 | -0.012 ± 0.0099 | -0.0085 ± 0.012 | -0.004 ± 0.0014 | -0.004 ± 0.011 | -0.002 ± 0.0071 | 0.005 ± 0.0099 | -0.0085 ± 0.0092 | -0.0015 ± 0.0092
11 | MyoF:CXCL8/IL-8 | -0.012 ± 0.0028 | 0.006 ± 0.0099 | -0.021 ± 0.0042 | -0.0205 ± 0.0035 | -0.0475 ± 0.0092 | -0.0395 ± 0.011 | 0.007 ± 0.028 | -0.006 ± 0.011 | 0.0075 ± 0.016 | -0.0445 ± 0.0064 | -0.032 ± 0.0028 | -0.0025 ± 0.019 | -0.005 ± 0.016 | 0.0115 ± 0.005 | 0.138 ± 0.0042 | 0.0095 ± 0.0021 | 0.023 ± 0.0042 | 0.0325 ± 0.032
12 | KF3CT:uPA | -0.0085 ± 0.047 | 0.017 ± 0.067 | -0.019 ± 0.033 | 0.003 ± 0.0014 | -0.0155 ± 0.011 | -0.014 ± 0.0028 | -0.0015 ± 0.018 | 0.0005 ± 0.0035 | 0.0145 ± 0.018 | 0.0095 ± 0.0064 | 0.0045 ± 0.0078 | 0.004 ± 0.02 | 0.016 ± 0.017 | 0.0145 ± 0.025 | 0.0055 ± 0.00071 | 0.006 ± 0.011 | 0.008 ± 0.016 | 0.011 ± 0.028
13 | 3C:CD106/VCAM-1 | -0.0315 ± 0.023 | -0.0385 ± 0.013 | -0.012 ± 0.011 | -0.0115 ± 0.00071 | -0.0045 ± 0.028 | -0.0045 ± 0.0078 | -0.0215 ± 0.08 | -0.02 ± 0.055 | 0.0005 ± 0.079 | -0.002 ± 0.03 | -0.039 ± 0.037 | -0.0205 ± 0.00071 | 0.008 ± 0.013 | 0.028 ± 0.0099 | 0.0325 ± 0.013 | -0.009 ± 0.0099 | -0.003 ± 0.013 | -0.01 ± 0.023
14 | lMphg:CD69 | -0.0285 ± 0.0064 | 0.005 ± 0.041 | 0.045 ± 0.081 | -0.048 ± 0.03 | -0.033 | -0.026 ± 0.025 | -0.0425 ± 0.052 | -0.027 ± 0.042 | 0.0275 ± 0.063 | -0.0265 ± 0.022 | -0.021 ± 0.035 | 0.0235 ± 0.049 | -0.054 ± 0.0099 | -0.0855 ± 0.033 | -0.111 ± 0.09 | -0.0075 ± 0.036 | -0.0125 ± 0.029 | -0.0175 ± 0.032
15 | CASM3C:CD141/Thrombomodulin | -0.0145 ± 0.047 | -0.0265 ± 0.018 | 0.001 ± 0.035 | -0.025 ± 0.0099 | -0.039 ± 0.0085 | -0.0125 ± 0.013 | 0.0225 ± 0.0064 | 0.0095 ± 0.019 | 0.007 ± 0.02 | -0.0215 ± 0.011 | -0.001 ± 0.023 | 0.0075 ± 0.033 | -0.019 ± 0.011 | 0.012 ± 0.017 | 0.03 ± 0.0071 | -0.004 ± 0.0042 | -0.01 ± 0.0014 | -0.0075 ± 0.005
16 | MyoF:alpha-SM Actin | 0.012 ± 0.028 | -0.0095 ± 0.039 | 0.0125 ± 0.08 | 0.018 ± 0.0085 | 0.026 ± 0.054 | 0.0225 ± 0.032 | 0.022 ± 0.061 | 0.0315 ± 0.056 | 0.0385 ± 0.032 | 0.0065 ± 0.021 | 0 ± 0.054 | 0.0245 ± 0.011 | 0.0635 ± 0.0064 | 0.0665 ± 0.032 | -0.0065 ± 0.03 | -0.0005 ± 0.015 | 0.004 ± 0.018 | 0.0055 ± 0.021
17 | CASM3C:IL-6 | -0.0235 ± 0.022 | -0.012 ± 0.0099 | 0.009 ± 0.047 | -0.01 ± 0.011 | -0.016 ± 0.0014 | 0.009 ± 0.031 | -0.0145 ± 0.0064 | -0.0185 ± 0.0035 | 0 ± 0.051 | -0.035 ± 0.011 | -0.0525 ± 0.00071 | 0.001 ± 0.092 | -0.009 ± 0.03 | -0.024 ± 0.02 | 0.015 ± 0.044 | -0.014 ± 0.02 | -0.008 ± 0.0071 | -0.0125 ± 0.061
